Assay results published in patent publication US8217085B2 (priority 2009, dated 2012).
Like-named read-outs stand apart in the source and are kept apart here.

Experiments:
[1] = tested on: ATCC strain 43300 Staphylococcus aureus; conditions: for average log reduction in cfu/ml: 48 hours; for Log reduction in cfu/ml: 120 hours
Description: This is the MIC for oxacillin and methicillin for this strain of bacteria.
USP<51> Antimicrobial Effectiveness protocol was used as the template experimental paradigm. […] All concentrations were plated out to the 10^−7 dilutionsto ascertain cfu/ml. […] This concentration is the industry standard for determining MRSA resistance in clinical applications.
Material was calculated on a 10 ml volume. Sterile oxacillin or methicillin was added to each experimental condition daily at 300 μl from a 30 mg/10 ml concentration giving it an initial final concentration of 6 μg/ml.
All tubes were inoculated with a dilution of MRSA giving a final level of colony forming units of 2.13×10^6/ml (Log=6.3). The tubes were incubated at 25° C. and mixed periodically. Plating was done at 24 hours, 48 hours and 5 days. Each condition was plated by diluting 1 ml of growth material into 9 ml of MLB diluent broth. This mixture was serial diluted down to 10^−7, and 1 ml placed in a sterile petri dish at each dilution point. 20 mls of TSA was added to each dilution, swirled and allowed to solidify. All dilutions were placed in a 35° C. incubator for 24 hours. Bacterial colonies on each plate were counted and colony counts changed into log format. A positive and negative control was ascertained.

[2] = tested on: ATCC strain 43300 Staphylococcus aureus; type: cell-based
[3] = tested on: ATCC strain 43300 Staphylococcus aureus
Description: Additional antibiotic was added every 24 hours. The growth periods tested were 24 (FIG. 5), 48, 72, 96 and 120 hours.
USP<51> Antimicrobial Effectiveness protocol was used as the template experimental paradigm. […] All concentrations were plated out to the 10^−7 dilutions to ascertain cfu/ml. […] Additional antibiotic was added at the initial concentration every 24 hours.
ATCC strain 43300 Staphylococcus aureus was streaked out for isolations. An isolated colony was chosen, streaked again and incubated. Isolate was chosen and then diluted to a McFarland standard of one. The estimated value was then taken to inoculate tubes containing growth media and 12, 30 or 60 μg/ml methicillin with approximately 10^5 cfu/ml. These tubes were incubated and plated for counting cfu.
Material was calculated on a 10 ml volume. Sterile methicillin was added to each experimental condition to a final concentration of 12, 30 or 60 μg/ml antibiotic. Lactose Broth positive controls both with and without the 12 μg/ml, 30 μg/ml, 60 μg/ml antibiotic were inoculated with MRSA. […] Tubes were set up in singlet, but plated in triplicate, as described below.
All tubes were then inoculated with a dilution of the selected ATCC strain 43300 Staphylococcus aureus clone giving a final level of colony forming units of 1.49×10^5/ml (log=5.17). The tubes were incubated at 25° C. and mixed periodically. Antibiotic was re-inoculated every 24 hours at the initial concentration to maintain pressure on the organism. Plating was done at 24, 48, 72, and 120 hours. Each condition was plated by diluting 1 ml of growth material into 9 ml of MLB diluent broth. […] This mixture was serial diluted down to 10^−7 with 1 ml placed in triplicate in a sterile petri dish at each dilution point. 20 mls of TSA was added to each dilution, swirled and allowed to solidify. All dilutions were placed in a 35° C. incubator for 24 to 72 hours. Bacterial colonies on each plate were counted and the average taken then changed into log format.

With `CS(C)(=O)=O` [MSM, methylsulfonylmethane] the “average log reduction in cfu/ml” value ([1]; initial 5% MSM, 6 μg/ml methicillin) was 2.7 log, the “average log reduction in cfu/ml” value ([1]; initial 8% MSM, 6 μg/ml oxacillin) was 2.7 log and the “Log reduction in cfu/ml” value ([1]; initial 13-16% MSM, 6 μg/ml methicillin) was ~3.5 log. The “Log reduction in cfu/ml” value ([1]; initial 14-16% MSM, 6 μg/ml oxacillin) was ~3.3 log, the “average log reduction in cfu/ml” value ([1]; initial 16% MSM, 6 μg/ml methicillin) was 2.1 log and the “average log reduction in cfu/ml” value ([1]; initial 16% MSM, 6 μg/ml oxacillin) was 2.1 log. For the same molecule, the “recovery of MRSA after enrichment” value ([2]; 5% MSM, 60 μg/ml methicillin, 72 hours) was “true total kill”, the “recovery of MRSA after enrichment” value ([2]; 6% MSM, 12 μg/ml methicillin, 72 hours) was “true total kill” and the “recovery of MRSA after enrichment” value ([2]; 6% MSM, 60 μg/ml methicillin, 72 hours) was “true total kill”. The “recovery of MRSA after enrichment” value ([2]; 7% MSM, 12 μg/ml methicillin, 72 hours) was “true total kill”, the “recovery of MRSA after enrichment” value ([2]; 8% MSM, 12 μg/ml methicillin, 96 hours) was “true total kill” and the “recovery of MRSA after enrichment” value ([2]; 10% MSM, 30 μg/ml methicillin, 120 hours) was “true total kill”. For the same molecule, the “recovery of MRSA after enrichment” value ([2]; 11% MSM, 30 μg/ml methicillin, 120 hours) was “true total kill”, the “recovery of MRSA after enrichment” value ([2]; 11% MSM, 60 μg/ml methicillin, 120 hours) was “true total kill” and the “recovery of MRSA after enrichment” value ([2]; 12% MSM, 30 μg/ml methicillin, 120 hours) was “true total kill”. For the same molecule, the “recovery of MRSA after enrichment” value ([2]; 12% MSM, 60 μg/ml methicillin, 120 hours) was “true total kill”, the “recovery of MRSA after enrichment” value ([2]; 14% MSM, 60 μg/ml methicillin, 120 hours) was “true total kill” and the “recovery of MRSA after enrichment” value ([2]; 15% MSM, 60 μg/ml methicillin, 120 hours) was “true total kill”. The “recovery of MRSA after enrichment” value ([2]; 16% MSM, 30 μg/ml methicillin, 120 hours) was “true total kill”, the “average log reduction in colony count” value ([3]; 30 μg/ml methicillin, lower end of MSM concentrations, 24 hours) was 3 log and the “log reduction in colony count” value ([3]; 5% MSM, 60 μg/ml methicillin, 48 hours) was 4.1 log. For the same molecule, the “log reduction in colony count” value ([3]; 6% MSM, 12 μg/ml methicillin, 48 hours) was 4.1 log, the “log reduction in colony count” value ([3]; 6% MSM, 30 μg/ml methicillin, 24 hours) was 2.8 log and the log reduction ([3]; 16% MSM, 12 μg/ml methicillin, 24 hours) was 2.2 log.
